Source: patent US20210308166A1, “ANTIOXIDANT COMPOSITION COMPRISING NOVEL GINSENOSIDE” (AMOREPACIFIC CORPORATION, priority 2018, published 2021)

Assays:
[1] = DPPH radical-scavenging (DPPH inhibition) assay; type: biochemical
Protocol: The DPPH (2,2-diphenyl-1-picrylhydrazyl) radical dissolved in an organic solvent has maximum absorbance at 515 nm. An antioxidant substance scavenges the DPPH radical, thereby turning the solution colorless and transparent. Accordingly, antioxidant effect can be compared by measuring the DPPH radical-scavenging activity of the ginsenosides through DPPH assay.
First, a DPPH solution was prepared by dissolving 4 mg of DPPH (Sigma) in 100 mL of ethanol (Sigma). Then, 10 μM of the novel ginsenoside GS #10 of an exemplary embodiment of the present disclosure or each of the ginsenosides GS #01 to GS #06 as comparative examples of the present disclosure, isolated from the ginseng seed extract, were dissolved in 200 μL of the DPPH solution. Trolox (Sigma; 10 μM) was used as a positive control group. After keeping the reaction solution at room temperature for 30 minutes, absorbance was measured at a wavelength of 515 nm.
DPPH-inhibiting effect was compared in the same manner as in Test Example 1. The novel ginsenoside GS #10 (isolated form the ginseng seed extract) according to an exemplary embodiment of the present disclosure was compared with three marker compounds of red ginseng (Rg1, Rg3 and Rb1; Sigma) as comparative examples of the present disclosure. The concentrations of the ginsenosides were 1 and 10 μM. […]

RAW 264.7 macrophages = assay: Scavenging of LPS-induced reactive oxygen species, H2DCFDA fluorescence; type: cell-based
Protocol: RAW 264.7 macrophages purchased from ATCC were cultured in Dulbecco's modified Eagle's medium (Sigma) supplemented with 10% fetal bovine serum (FBS; HyClone) and 1% penicillin/streptomycin (Sigma) in a 5% CO2 incubator. After treating the RAW 264.7 cells with NAC (N-acetylcysteine; positive control group; Sigma) or each of the 7 ginsenosides extracted from the ginseng seed (GS #01 to GS #06 and GS #10; 10 μM each) for 1 hour, lipidpolysaccharides (LPS; inflammation/oxidative stress-induced group, Sigma) ware administered at a concentration of 10 ng/mL concentration for 30 minutes. Then, the cells were treated with 10 μM H2DCFDA (2′,7′-dichlorodihydrofluorescein diacetate; Invitrogen) for 30 minutes for measurement of reactive oxygen species. The amount of accumulated reactive oxygen species was measured using a TECAN multiplate reader (Tecan AG, excitation 485 nm, emission 530 nm).
The reactive oxygen species-scavenging ability of the novel ginsenoside GS #10 (isolated from the ginseng seed extract) according to an exemplary embodiment of the present disclosure was compared with that of three ginsenosides (Rg1, Rg3 and Rb1; Sigma), which are marker compounds of red ginseng as comparative examples of the present disclosure, in the same manner as in Test Example 2. The concentrations of the ginsenosides were 1 and 10 μM.

SH-SY5Y cells = assay: Cytotoxicity / cell viability, CCK-8; type: cell-based; settings: SH-SY5Y cells, 0.1, 1, 5, 10, 20 and 50 μM, CCK-8 (FIG. 15)
Protocol: In order to exclude the possibility that the ginsenoside might affect antioxidant effect through cytotoxic activity, cell growth in the presence of the novel ginsenoside GS #10 according to an exemplary embodiment of the present disclosure was evaluated as follows using CCK (Cell Counting Kit)-8.
After adding 10 μL of CCK-8 reagent to SH-SY5Y cells (Dojindo, Md., USA) on a 96-well plate and maintaining at 37° C. for 2 hours, absorbance was measured at 450 nm. Cell viability was represented as the percentage (%) of the absolute optical density of each sample with respect to an untreated sample. The concentrations of the novel ginsenoside GS #10 according to an exemplary embodiment of the present disclosure in the medium for culturing the cells were 0.1, 1, 5, 10, 20 and 50 μM.

## CC1(C)C(=O)CC[C@@]2(C)C1[C@@H](O[C@H]1OC(CO)[C@H](O)C(O)C1O[C@H]1OC(CO)[C@H](O)C(O)C1O)C[C@]1(C)C2C[C@@H](O)C2C([C@]3(C)CC[C@H](C(C)(C)O)O3)CC[C@]21C (stereo partly drawn) [Compound 10, (20S,24R)-6-O-β-D-glucopyranosyl(1->2)-β-D-glucopyranoside-dammar-3-one-20,24-epoxy-6a,12b,25-triol]
[1]; 10 μM, room temperature 30 minutes, absorbance 515 nm, compared to Compounds 1-6 at the same concentration (FIG. 11)
  DPPH (reactive oxygen species)-scavenging ability, i.e., DPPH-inhibiting ability: remarkably higher DPPH (reactive oxygen species)-scavenging ability
[1]; 1 and 10 μM, compared to ginsenosides Rg1, Rg3 and Rb1, marker compounds of red ginseng (FIG. 13)
  DPPH-inhibiting effect: remarkably excellent DPPH-inhibiting effect
RAW 264.7 macrophages; 10 μM for 1 hour, then LPS 10 ng/mL 30 minutes, compared to Compounds 1-6 at the same concentration (FIG. 12)
  removal of reactive oxygen species induced by LPS: can effectively remove the reactive oxygen species induced by LPS
RAW 264.7 macrophages; 1 and 10 μM, LPS-treated RAW 264.7 cells (FIG. 14)
  production of reactive oxygen species: decreased as the concentration of the novel ginsenoside GS #10 according to the present disclosure was increased
RAW 264.7 macrophages; 1 and 10 μM, compared to ginsenosides Rg1, Rg3 and Rb1 (FIG. 14)
  reactive oxygen species-scavenging ability: remarkably superior
SH-SY5Y cells
  cytotoxicity (cell viability, % of untreated sample): no cytotoxicity up to 50 μM
